Source: patent US8937096B2, “Use of benzo-fused heterocyle sulfamide derivatives for the treatment of mania and bipolar disorder” (priority 2005, dated 2015)

What was measured:
[1] = test system: Wistar rats; test: Chronic Mild Stress Model (Chronic); assay type: in vivo, rat; conditions: stressed animals; i.p. once daily
Excerpt: In the chronic mild stress (CMS) model rats subjected to a variety of mild stressors for a prolonged period of time show, among other behavioral, biochemical and physiological impairments, a substantial decrease in their responsiveness to rewarding stimuli. This deficit is usually monitored by a decrease in the consumption of the 1% sucrose solution, but can also be seen in other tests, such as place preference conditioning or intracranial self-stimulation. Since the subsensitivity to reward appears to reflect anhedonia (inability to experience pleasure), which is a core symptom of major depressive disorders, the CMS procedure may serve as a suitable research tool in studies into the mechanisms of antidepressant action.
Male Wistar rats were brought into the laboratory two months before the start of the experiment. Except as described below, the animals were singly housed with food and water freely available, and were maintained on a 12-h light/dark and in a constant temperature (22±2° C.) and humidity (50±5%) conditions.
The animals were first trained to consume a 1% sucrose solution; training consisted of eight 1 h baseline tests in which sucrose was presented, in the home cage, following 14 h food and water deprivation; the sucrose intake was measured by weighing pre-weighed bottles containing the sucrose solution, at the end of the test. Subsequently, sucrose consumption was monitored, under similar conditions, at weekly intervals throughout the whole experiment.
On the basis of their sucrose intakes in the final baseline test, the animals were divided into two matched groups. One group of animals was subjected to the chronic mild stress procedure for a period of 7 consecutive weeks. […]
All results obtained in this study were analyzed by multiple analyses of variance with three between-subjects factors (stress/control, drug treatments and successive sucrose tests). […]

[2] = test system: stressed and non-stressed animals; test: Resident/Intruder Assay (Chronic Social Stress Assay); assay type: in vivo; design: Locomotor Mean ± SD / Rearing Mean ± SD / Sniffing Down Mean ± SD / Sniffing Up Mean ± SD: unit not given here; conditions: 10 mg/kg p.o.
Excerpt: The behavioral resident/intruder assay is used to screen compounds for anti-depressant-like activity.

[3] = Median toxic dose (TD50) / toxic doses of Compound #8 and reference drugs; conditions: rat, in vivo
[4] = test system: hippocampal kindled seizures; test: Rat Hippocampal Kindling Test (Interruption of Kindled State); assay type: in vivo; conditions: reference drugs; suppression at doses associated with toxicity
Protocol: In the present rapid hippocampal kindling model adult male Sprague-Dawley rats (300-400 g) were surgically implanted with bipolar electrodes placed in the hippocampus. […] One week later, the rats received 2-3 supra-threshold stimulations delivered every 30 min before treatment with test compound, to ensure stability of the behavioral seizure stage and after-discharge duration. Fifteen minutes after the last stimulation, a single dose of vehicle or test compound was administered i.p. (intraperitoneally). After 15 min, each rat was then stimulated every 30 min for 3 to 4 h. After each stimulation, individual seizure scores and after-discharge durations were recorded. The group mean±SEM were calculated for each parameter. Eight rats per dose and a minimum of four doses were used to establish an ED50 value. Efficacy was measured as the ability of a compound to modify the seizure score (severity of spread) and after-discharge duration (ADD; excitability) of the generalized seizures.
Thus, according to the theories presented in current literature (Ghaemi, S. N., Boiman, E. E., and Goodwin, F. K., Soc. of Bio. Psychiatry, (1999), vol. 45, pp 137-144; Stoll, A. L., and Severus, W. E., Harvard Rev. Psychiatry, July/August (1996), Vol. 4, No. 2, pp 77-89) a decrease in seizure score and/or ADD may also be predictive of the ability of a test compound to treat the cycling associated with bipolar disorder.

[5] = test system: amygdala kindled seizures; conditions: i.p.; cited from earlier work
[6] = test system: hippocampal kindled seizures; conditions: rat, in vivo; cited from earlier work

SMILES: NS(=O)(=O)NCC1CCc2ccccc2O1 (stereo not drawn)
- melting point: 100 to 101 °C

SMILES: CN(C)CCCN1c2ccccc2CCc2ccccc21 [Imipramine, imipramine, reference compound]
- treatment time after which increases in sucrose intake in stressed animals reached statistical significance vs Week 0 [1]: four weeks
- Forced Swim Test: Immobility during 5 min: Week 5 Mean ± SD ([2]; non-stressed): 125.3 ± 50.1
- Sucrose Intake Mean ± SD Week 3 ([2]; non-stressed): 87.9 ± 2.7
- Sucrose Intake Mean ± SD Week 4 ([2]; non-stressed): 89.7 ± 5.3
- Sucrose Intake Mean ± SD Week 5 ([2]; non-stressed): 91.0 ± 3.7
- Locomotor Mean ± SD ([2]; non-stressed, week 1): 8162.8 ± 929.9
- Rearing Mean ± SD ([2]; non-stressed, week 1): 51.5 ± 12.6
- Sniffing Down Mean ± SD ([2]; non-stressed, week 1): 25.8 ± 4.9
- Rearing Mean ± SD ([2]; non-stressed, week 5): 42.1 ± 2.9
- Sniffing Down Mean ± SD ([2]; non-stressed, week 5): 26.4 ± 5.2
- Sniffing Up Mean ± SD ([2]; non-stressed, week 5): 37.5 ± 2.1
- Forced Swim Test: Immobility during 5 min: Week 5 Mean ± SD ([2]; stressed): 157.5 ± 71.6
- Sucrose Intake Mean ± SD Week 3 ([2]; stressed): 70.5 ± 19.5
- Sucrose Intake Mean ± SD Week 4 ([2]; stressed): 78.3 ± 15.1
- Sucrose Intake Mean ± SD Week 5 ([2]; stressed): 73.6 ± 19.4
- Locomotor Mean ± SD ([2]; stressed, week 1): 6037.8 ± 1382.8
- Rearing Mean ± SD ([2]; stressed, week 1): 30 ± 9.5
- Sniffing Down Mean ± SD ([2]; stressed, week 1): 14.4 ± 4.4
- Sniffing Up Mean ± SD ([2]; stressed, week 1): 27.5 ± 7.9
- Locomotor Mean ± SD ([2]; stressed, week 5): 5642.8 ± 998.6
- Rearing Mean ± SD ([2]; stressed, week 5): 27.8 ± 7.4
- Sniffing Down Mean ± SD ([2]; stressed, week 5): 17.3 ± 3.4
- Sniffing Up Mean ± SD ([2]; stressed, week 5): 24.3 ± 5.1

SMILES: CCCC(CCC)C(=O)O [Valproic acid, reference compound]
- toxic doses [3]: > 300 mg/kg
- seizure activity in the hippocampal kindling model [4]: significantly suppressed seizure activity

SMILES: Nc1nnc(-c2cccc(Cl)c2Cl)c(N)n1 [lamotrigine]
- ADD reduced by [5]: 62%
- ED50 (amygdala kindled seizures) [5]: 25 mg/kg
- amygdala kindled seizure score [5]: ~2
- protection against hippocampal kindled seizures [6]: unable to protect
